Laboratory results as given in ChEMBL document CHEMBL3112465 (Eur J Med Chem, 2014).
The source made the active and inactive calls. The calls are words filed in the database; no cut-off is given here.

Tests used:
[1] = Plasma concentration in Wistar rat lambda carrageenan-induced pleurisy model at 20 mg/kg, ip pretreated for 30 mins followed by lambda carrageenan-challenge measured after 4 hrs by SPE-HPLC analysis; type: ADME, organism-based; parameters: dose 20 mg/kg, route intraperitoneal
[2] = Plasma concentration in Wistar rat lambda carrageenan-induced pleurisy model at 10 mg/kg, ip pretreated for 30 mins followed by lambda carrageenan-challenge measured after 4 hrs by SPE-HPLC analysis; type: ADME, organism-based; parameters: dose 10 mg/kg, route intraperitoneal
[3] = Plasma concentration in Wistar rat lambda carrageenan-induced pleurisy model at 5 mg/kg, ip pretreated for 30 mins followed by lambda carrageenan-challenge measured after 4 hrs by SPE-HPLC analysis; type: ADME, organism-based; parameters: dose 5 mg/kg, route intraperitoneal
Rattus norvegicus [4] = experiment: Antiinflammatory activity in Wistar rat lambda carrageenan-induced pleurisy model assessed as decrease in number of leukocytes in pleural space at 20 mg/kg, ip pretreated for 30 mins followed by lambda carrageenan-challenge measured after 4 hrs relative to control; type: functional; parameters: scale not given: the % may be the effect or the level left
Rattus norvegicus [5] = experiment: Antiinflammatory activity in Wistar rat lambda carrageenan-induced pleurisy model assessed as decrease in number of leukocytes in pleural space at 10 mg/kg, ip pretreated for 30 mins followed by lambda carrageenan-challenge measured after 4 hrs relative to control; type: functional; parameters: scale not given: the % may be the effect or the level left
Rattus norvegicus [6] = experiment: Antiinflammatory activity in Wistar rat lambda carrageenan-induced pleurisy model assessed as decrease in number of leukocytes in pleural space at 5 mg/kg, ip pretreated for 30 mins followed by lambda carrageenan-challenge measured after 4 hrs relative to control; type: functional
Rattus norvegicus [7] = experiment: Antiinflammatory activity in Wistar rat lambda carrageenan-induced pleurisy model assessed as decrease in exudate volume at 20 mg/kg, ip pretreated for 30 mins followed by lambda carrageenan-challenge measured after 4 hrs relative to control; type: functional; conditions: route intraperitoneal
Rattus norvegicus [8] = experiment: Antiinflammatory activity in Wistar rat lambda carrageenan-induced pleurisy model assessed as decrease in exudate volume at 10 mg/kg, ip pretreated for 30 mins followed by lambda carrageenan-challenge measured after 4 hrs relative to control; type: functional; conditions: route intraperitoneal
Rattus norvegicus [9] = experiment: Antiinflammatory activity in Wistar rat lambda carrageenan-induced pleurisy model assessed as decrease in exudate volume at 5 mg/kg, ip pretreated for 30 mins followed by lambda carrageenan-challenge measured after 4 hrs relative to control; type: functional; conditions: route intraperitoneal
[10] = target: T1, Prostaglandin G/H synthase 2 (Homo sapiens, UniProt P35354); parameters: species or system Blood
T1 sequence (P35354 whole entry): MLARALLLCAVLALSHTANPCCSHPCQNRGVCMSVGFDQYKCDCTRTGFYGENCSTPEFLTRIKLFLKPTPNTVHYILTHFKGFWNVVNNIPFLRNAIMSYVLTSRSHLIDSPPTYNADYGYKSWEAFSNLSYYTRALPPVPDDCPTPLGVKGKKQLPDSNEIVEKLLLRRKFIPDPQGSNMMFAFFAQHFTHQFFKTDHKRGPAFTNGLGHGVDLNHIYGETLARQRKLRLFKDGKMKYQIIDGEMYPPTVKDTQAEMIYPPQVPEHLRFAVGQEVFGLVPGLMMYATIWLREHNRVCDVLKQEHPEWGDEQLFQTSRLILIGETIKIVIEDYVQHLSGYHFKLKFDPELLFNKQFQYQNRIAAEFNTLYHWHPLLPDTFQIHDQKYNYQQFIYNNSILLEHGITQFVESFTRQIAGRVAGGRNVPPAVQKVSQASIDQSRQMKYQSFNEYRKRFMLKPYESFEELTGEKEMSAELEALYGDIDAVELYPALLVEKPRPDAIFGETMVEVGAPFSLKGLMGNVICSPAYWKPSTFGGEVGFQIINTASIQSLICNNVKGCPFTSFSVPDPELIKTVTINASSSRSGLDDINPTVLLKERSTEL

[11] = target: Prostaglandin G/H synthase 1 (Homo sapiens, UniProt P23219); parameters: species or system Blood
Prostaglandin G/H synthase 1, sequence (P23219 whole entry): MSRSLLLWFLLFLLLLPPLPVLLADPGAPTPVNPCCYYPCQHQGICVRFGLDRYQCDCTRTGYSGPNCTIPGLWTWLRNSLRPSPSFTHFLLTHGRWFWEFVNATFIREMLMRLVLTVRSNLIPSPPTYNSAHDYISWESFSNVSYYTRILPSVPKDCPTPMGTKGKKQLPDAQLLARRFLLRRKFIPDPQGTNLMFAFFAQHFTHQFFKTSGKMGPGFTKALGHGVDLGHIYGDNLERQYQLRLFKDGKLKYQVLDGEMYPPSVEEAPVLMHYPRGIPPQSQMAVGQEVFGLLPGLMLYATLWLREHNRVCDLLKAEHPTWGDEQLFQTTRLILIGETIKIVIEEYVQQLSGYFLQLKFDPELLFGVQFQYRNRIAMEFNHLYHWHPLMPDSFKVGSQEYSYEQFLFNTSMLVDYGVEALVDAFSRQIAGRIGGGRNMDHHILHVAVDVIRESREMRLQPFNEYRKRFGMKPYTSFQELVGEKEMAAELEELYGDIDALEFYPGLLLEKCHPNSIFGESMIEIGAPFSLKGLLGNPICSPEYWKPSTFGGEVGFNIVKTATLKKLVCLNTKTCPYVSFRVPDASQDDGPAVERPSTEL

[12] = Retention time of the compound by chromatographic analysis; type: physicochemical

Row | Compound | concentration at 4 h [1] | concentration at 4 h [2] | concentration at 4 h [3] | Activity (Rattus norvegicus [4]; route intraperitoneal) | Activity (Rattus norvegicus [5]; route intraperitoneal) | IC50 [10] | IC50 [11] | other results
1 | Cc1ccc(Nc2cnccc2NS(=O)(=O)C(F)(F)F)cc1Br | 920 ng/mL | 180 ng/mL | 170 ng/mL | 44.06% | 26.24% | 90 nM | 1400 nM | Activity (Rattus norvegicus [6]): inactive; inhibition in vivo at 20 mg/kg (Rattus norvegicus [7]): 71%; inhibition in vivo at 10 mg/kg (Rattus norvegicus [8]): 57.1%; inhibition in vivo at 5 mg/kg (Rattus norvegicus [9]): 19.4%
2 | CS(=O)(=O)Nc1ccc([N+](=O)[O-])cc1Oc1ccccc1 [NIMESULIDE] | 75200 ng/mL | 41300 ng/mL | 17000 ng/mL | 72.93% | 52.05% |  |  | Activity (Rattus norvegicus [6]; route intraperitoneal): 23.08%; inhibition in vivo at 10 mg/kg (Rattus norvegicus [8]): 48.4%; inhibition in vivo at 5 mg/kg (Rattus norvegicus [9]): 31.1%
3 | O=S(=O)(Nc1ccncc1Nc1ccc(F)cc1)C(F)(F)F |  |  |  |  |  | 300 nM | 270 nM | 
4 | O=S(=O)(Nc1ccncc1Nc1ccc(Cl)cc1)C(F)(F)F | 27300 ng/mL | 9490 ng/mL | 4610 ng/mL | 72.47% | 54.44% |  |  | Activity (Rattus norvegicus [6]; route intraperitoneal): 44.15%
5 | CS(=O)(=O)Nc1ccncc1Nc1cccc(F)c1 |  |  |  |  |  | 10000 nM | 1370 nM | 
6 | Cc1ccc(-c2cc(C(F)(F)F)nn2-c2ccc(S(N)(=O)=O)cc2)cc1 [CELECOXIB] | 2680 ng/mL | 1130 ng/mL | 620 ng/mL | 28.87% | 23.05% |  |  | Activity (Rattus norvegicus [6]; route intraperitoneal): 24.02%; inhibition in vivo at 20 mg/kg (Rattus norvegicus [7]): 42.1%; inhibition in vivo at 10 mg/kg (Rattus norvegicus [8]): 27.3%; inhibition in vivo at 5 mg/kg (Rattus norvegicus [9]): 15.7%
7 | O=S(=O)(Nc1ccncc1Nc1ccccc1)C(F)(F)F | 3620 ng/mL | 1540 ng/mL | 720 ng/mL | 51.7% | 34.83% |  |  | Activity (Rattus norvegicus [6]; route intraperitoneal): 24.82%; inhibition in vivo at 20 mg/kg (Rattus norvegicus [7]): 72.2%; inhibition in vivo at 10 mg/kg (Rattus norvegicus [8]): 55.7%; inhibition in vivo at 5 mg/kg (Rattus norvegicus [9]): 25.4%
8 | Cc1ccc(Nc2cnccc2NS(C)(=O)=O)cc1C |  |  |  |  |  | 30700 nM | 3280 nM | 
9 | O=S(=O)(Nc1ccncc1Nc1cccc(F)c1)C(F)(F)F |  |  |  |  |  | 240 nM | 440 nM | 
10 | O=S(=O)(Nc1ccncc1Nc1ccc(O)cc1)C(F)(F)F |  |  |  |  |  | > 100000 nM | 18100 nM | 
11 | O=S(=O)(Nc1ccncc1Nc1ccc(F)c(Br)c1)C(F)(F)F | 59100 ng/mL | 34100 ng/mL | 11400 ng/mL | 69.78% | 41.22% | 2270 nM | 1350 nM | Activity (Rattus norvegicus [6]; route intraperitoneal): 11.13%; inhibition in vivo at 20 mg/kg (Rattus norvegicus [7]): 66.5%; inhibition in vivo at 10 mg/kg (Rattus norvegicus [8]): 42.6%; inhibition in vivo at 5 mg/kg (Rattus norvegicus [9]): 21.9%
12 | CS(=O)(=O)Nc1ccncc1Nc1ccc(F)cc1 |  |  |  |  |  | 20700 nM | 2090 nM | 
13 | O=S(=O)(C1CC1)N(c1ccncc1Nc1ccccc1)S(=O)(=O)C1CC1 |  |  |  |  |  | 56800 nM | 19600 nM | 
14 | Cc1cc(C)cc(Nc2cnccc2NS(C)(=O)=O)c1 |  |  |  |  |  | > 100000 nM | 14900 nM | 
15 | CCCC(C)C1(CC)C(=O)NC(=O)NC1=O (centres undefined) [PENTOBARBITAL] |  |  |  |  |  |  |  | Retention_time [12]: 11.71 min
16 | O=S(=O)(Nc1ccncc1Nc1cccc(I)c1)C(F)(F)F |  |  |  |  |  | 260 nM | 1930 nM | 
17 | O=S(=O)(Nc1ccncc1Nc1cccc(Br)c1)C(F)(F)F | 820 ng/mL | 430 ng/mL | 300 ng/mL | 28.52% | 27.07% |  |  | Retention_time [12]: 13.65 min; Activity (Rattus norvegicus [6]; route intraperitoneal): 27.1%
18 | N#Cc1cccc(Nc2cnccc2NS(=O)(=O)C(F)(F)F)c1 |  |  |  |  |  | 36200 nM | 6650 nM | 
19 | O=S(=O)(Nc1ccncc1Nc1cccc(Cl)c1)C(F)(F)F | 1400 ng/mL | 680 ng/mL | 560 ng/mL | 16.41% |  |  |  | Activity (Rattus norvegicus [5]): inactive; Activity (Rattus norvegicus [6]): inactive
20 | O=S(=O)(Nc1ccncc1Nc1ccccc1)C1CC1 |  |  |  |  |  | 35100 nM | 3610 nM | 
21 | Cc1ccc(Nc2cnccc2NS(=O)(=O)C(F)(F)F)cc1C |  |  |  |  |  | 550 nM | 710 nM | 
22 | CS(=O)(=O)Nc1ccncc1Nc1cccc(Cl)c1 | 1860 ng/mL | 690 ng/mL | 260 ng/mL |  |  |  |  | Activity (Rattus norvegicus [4]): inactive; Activity (Rattus norvegicus [5]): inactive; Activity (Rattus norvegicus [6]): inactive
23 | O=S(=O)(Nc1ccncc1Nc1ccc(F)c(Cl)c1)C(F)(F)F | 54600 ng/mL | 30000 ng/mL | 13000 ng/mL | 64.71% | 48.23% | 1570 nM | 1740 nM | Activity (Rattus norvegicus [6]; route intraperitoneal): 14.74%; inhibition in vivo at 20 mg/kg (Rattus norvegicus [7]): 73.5%; inhibition in vivo at 10 mg/kg (Rattus norvegicus [8]): 67.5%; inhibition in vivo at 5 mg/kg (Rattus norvegicus [9]): 36.6%
24 | Cc1cc(C)cc(Nc2cnccc2NS(=O)(=O)C(F)(F)F)c1 |  |  |  |  |  | 1040 nM | 4110 nM | 
25 | Cc1ccc(Nc2cnccc2NS(=O)(=O)C(F)(F)F)cc1Cl |  |  |  |  |  | 1960 nM | 1470 nM | 
26 | Cc1cccc(Nc2cnccc2NS(=O)(=O)C(F)(F)F)c1 | 410 ng/mL | 200 ng/mL | 100 ng/mL | 50.18% | 24.98% |  |  | Activity (Rattus norvegicus [6]; route intraperitoneal): 17.07%
27 | O=S(=O)(Nc1ccncc1Nc1ccc(O)c(Br)c1)C(F)(F)F |  |  |  |  |  | > 100000 nM | 4210 nM | Retention_time [12]: 10.34 min
28 | Cc1cc(Nc2cnccc2NS(=O)(=O)C(F)(F)F)ccc1Br |  |  |  |  |  | 300 nM | 2320 nM | 
